Structures are written as SMILES.

This experiment has as its target T1, hSCN3A sodium channels (Homo sapiens, UniProt Q9NY46).
T1 construct: expressed in transfected cells
As to the kind of experiment: hSCN3A electrophysiology, whole-cell patch-clamp or PatchXpress 7000, estimated IC-50 (Table B). The class given is cell-based. Particulars: estimated IC-50; hSCN3A cells, whole-cell patch-clamp or PatchXpress 7000; read-out: SCN3A EIC-50. Here is the method: Human Embryonic Kidney (HEK) cells were transfected with an hSCN3A construct using lipofectamine reagent (Invitrogen), using standard techniques. […] Clones were screened for expression using the whole-cell voltage-clamp technique.
HEK cells stably transfected with hSCN3A were maintained in DMEM medium supplemented with 10% heat-inactivated fetal bovine serum and 400 μg/ml G418 sulfate in an incubator at 37° C. with a humidified atmosphere of 10% CO2. […] For electrophysiological studies, cells were removed from the culture flask by brief trypsinization and replated at low density onto glass cover slips. Cells were typically used for electrophysiological experiments within 24 to 72 h after plating.
All recordings were made at room temperature (22-24° C.) using AXOPATCH 200B amplifiers and PCLAMP software (Axon Instruments, Burlingame, Calif.) or PatchXpress 7000 hardware and associated software (Axon Instruments, Burlingame, Calif.).
Current records were acquired at 20 to 50 KHz and filtered at 5 to 10 KHz.
HEK cells stably transfected with hSCN3A were viewed under Hoffman contrast optics and placed in front of an array of flow pipes emitting either control or compound-containing extracellular solutions. All compounds were dissolved in dimethyl sulfoxide to make 10 mM stock solutions, which were then diluted into extracellular solution to attain the final concentrations desired.
The voltage-dependence of inactivation was determined by applying a series of depolarizing prepulses (8 sec long in 10 mV increments) from a negative holding potential. The voltage was then immediately stepped to 0 mV to assess the magnitude of the sodium current. Currents elicited at 0 mV were plotted as a function of prepulse potential to allow estimation of the voltage midpoint of inactivation (V1/2). Cells were then voltage clamped at the empirically determined V1/2.
Compounds were tested for their ability to inhibit hSCN3A sodium channels by activating the channel with a 20 msec voltage step to 0 mV following an 8 second conditioning prepulse to the empirically determined V1/2 (Table B). Compound effect (% inhibition) was determined by difference in current amplitude before and after application of test compounds. […] Inhibition values <20% and >80% were excluded from the calculation.
In some cases electrophysiological assays were conducted with PatchXpress 7000 hardware and associated software (Molecular Devices Corp) (Table B). All assay buffers and solutions were identical to those used in conventional whole-cell voltage clamp experiments described above. hSCN3A cells were grown as above to 50%-80% confluency and harvested by trypsinization. Trypsinized cells were washed and resuspended in extracellular buffer at a concentration of 1×10^6 cells/ml. The onboard liquid handling facility of the PatchXpress was used for dispensing cells and application of test compounds. Determination of the voltage midpoint of inactivation was as described for conventional whole-cell recordings. Cells were then voltage-clamped to the empirically determined V1/2 and current was activated by a 20 msec voltage step to 0 mV.

T1 sequence (Q9NY46 whole entry): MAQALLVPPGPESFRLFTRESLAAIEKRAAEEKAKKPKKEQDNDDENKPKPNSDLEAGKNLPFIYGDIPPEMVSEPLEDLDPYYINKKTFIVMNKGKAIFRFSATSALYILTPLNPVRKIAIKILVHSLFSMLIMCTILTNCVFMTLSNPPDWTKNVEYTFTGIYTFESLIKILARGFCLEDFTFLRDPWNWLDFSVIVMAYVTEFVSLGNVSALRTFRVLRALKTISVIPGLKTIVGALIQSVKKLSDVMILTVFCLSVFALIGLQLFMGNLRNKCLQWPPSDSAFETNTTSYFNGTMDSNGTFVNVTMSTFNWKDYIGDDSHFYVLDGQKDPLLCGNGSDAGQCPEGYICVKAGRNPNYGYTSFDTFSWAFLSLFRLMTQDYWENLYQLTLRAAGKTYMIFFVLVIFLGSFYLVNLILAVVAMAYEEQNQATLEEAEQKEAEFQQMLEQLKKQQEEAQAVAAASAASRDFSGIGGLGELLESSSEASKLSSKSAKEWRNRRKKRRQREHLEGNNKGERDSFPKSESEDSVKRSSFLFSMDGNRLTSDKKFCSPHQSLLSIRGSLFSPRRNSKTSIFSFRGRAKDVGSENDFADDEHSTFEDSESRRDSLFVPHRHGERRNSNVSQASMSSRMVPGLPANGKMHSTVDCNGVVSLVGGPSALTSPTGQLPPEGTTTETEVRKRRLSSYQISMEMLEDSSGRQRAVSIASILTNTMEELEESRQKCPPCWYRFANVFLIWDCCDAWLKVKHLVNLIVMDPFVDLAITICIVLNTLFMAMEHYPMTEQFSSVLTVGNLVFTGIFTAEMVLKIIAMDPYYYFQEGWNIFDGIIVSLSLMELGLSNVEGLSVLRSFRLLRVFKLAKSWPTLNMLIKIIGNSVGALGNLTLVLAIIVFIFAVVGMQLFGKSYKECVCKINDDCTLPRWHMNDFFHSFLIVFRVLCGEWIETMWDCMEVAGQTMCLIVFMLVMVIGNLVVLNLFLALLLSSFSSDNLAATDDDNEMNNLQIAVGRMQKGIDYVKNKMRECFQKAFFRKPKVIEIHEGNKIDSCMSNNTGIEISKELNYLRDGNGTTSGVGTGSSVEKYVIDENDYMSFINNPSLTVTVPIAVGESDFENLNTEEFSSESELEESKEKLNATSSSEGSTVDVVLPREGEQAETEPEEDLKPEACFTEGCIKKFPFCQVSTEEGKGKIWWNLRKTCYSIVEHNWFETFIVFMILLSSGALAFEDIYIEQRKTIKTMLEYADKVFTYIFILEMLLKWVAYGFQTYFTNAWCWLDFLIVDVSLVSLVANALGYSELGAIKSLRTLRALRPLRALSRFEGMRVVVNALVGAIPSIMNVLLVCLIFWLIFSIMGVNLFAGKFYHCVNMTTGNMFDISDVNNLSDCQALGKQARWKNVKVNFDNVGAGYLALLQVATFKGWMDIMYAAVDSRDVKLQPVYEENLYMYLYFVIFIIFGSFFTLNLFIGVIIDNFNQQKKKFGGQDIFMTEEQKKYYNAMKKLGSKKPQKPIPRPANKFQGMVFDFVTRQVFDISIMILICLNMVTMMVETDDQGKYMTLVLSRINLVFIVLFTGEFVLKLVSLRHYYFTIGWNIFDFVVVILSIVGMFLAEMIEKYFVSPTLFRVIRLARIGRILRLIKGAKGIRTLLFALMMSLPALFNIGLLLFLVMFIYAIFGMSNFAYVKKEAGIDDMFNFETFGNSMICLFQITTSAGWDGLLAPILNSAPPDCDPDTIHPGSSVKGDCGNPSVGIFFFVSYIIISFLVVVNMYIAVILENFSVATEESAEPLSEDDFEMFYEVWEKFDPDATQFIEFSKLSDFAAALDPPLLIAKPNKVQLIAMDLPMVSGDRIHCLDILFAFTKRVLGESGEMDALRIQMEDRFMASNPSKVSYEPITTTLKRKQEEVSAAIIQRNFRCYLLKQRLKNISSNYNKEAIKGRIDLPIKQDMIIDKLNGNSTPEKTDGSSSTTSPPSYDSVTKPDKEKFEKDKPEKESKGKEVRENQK

Turning to `O=C(NCc1ccc(C(F)(F)F)cc1)c1ccc(S(=O)(=O)Nc2ncc(Cl)s2)cc1Cl` [Example 338, 2-Chloro-4-{[(5-chloro-1,3-thiazol-2-yl)amino]sulfonyl}-N-[4-(trifluoromethyl)benzyl] benzamide], the IC50 is 1070 nM.

Take `O=C(NCCc1cccc(F)c1)c1ccc(S(=O)(=O)Nc2nccs2)cc1` [Example 75, N-[2-(3-fluorophenyl)ethyl]-4-[(1,3-thiazol-2-ylamino)sulfonyl]benzamide]: the IC50 is above 300 nM.

Take `O=C(NCc1ccc(F)c(C(F)(F)F)c1)c1ccc(S(=O)(=O)Nc2nccs2)cc1F` [Example 336, 2-Fluoro-N-[4-fluoro-3-(trifluoromethyl)benzyl]-4-[(1,3-thiazol-2-ylamino)sulfonyl] benzamide]: the IC50 is 240 nM.

Regarding `O=C(NCc1ccc(OC(F)(F)F)c(F)c1)c1ccc(S(=O)(=O)Nc2ncns2)cc1` [Example 321, N-[3-fluoro-4-(trifluoromethoxy)benzyl]-4-[(1,2,4-thiadiazol-5-ylamino)sulfonyl]benzamide], the IC50 was 40 nM.

Take `O=C(NCc1ccc(OC(F)(F)F)cc1)c1ccc(S(=O)(=O)Nc2nccs2)cc1` [Example 402, 4-[(1,3-Thiazol-2-ylamino)sulfonyl]-N-[4-(trifluoromethoxy)benzyl]benzamide]: the IC50 is 190 nM.

As for `O=C(NCc1ccc(OC(F)(F)F)cc1)c1ccc(S(=O)(=O)Nc2ncc(Cl)s2)cc1F` [Example 360, 4-{[(5-Chloro-1,3-thiazol-2-yl)amino]sulfonyl}-2-fluoro-N-[4-(trifluoromethoxy)benzyl]benzamide], the IC50 is 160 nM.

Turning to `O=C(NCc1ccc(F)cc1Cl)c1ccc(S(=O)(=O)Nc2nccs2)cc1` [Example 95, N-(2-chloro-4-fluorobenzyl)-4-[(1,3-thiazol-2-ylamino)sulfonyl]benzamide], the IC50 is above 100 nM.

Take `O=C(c1ccc(S(=O)(=O)Nc2nccs2)cc1)N1CCO[C@@H]2Cc3ccccc3[C@@H]21` [Example 53, 4-[(4aS,9aR)-2,3,9,9a-tetrahydroindeno[2,1-b][1,4]oxazin-4(4aH)-ylcarbonyl]-N-1,3-thiazol-2-ylbenzenesulfonamide]: the IC50 was 2860 nM.

In the case of `O=C(c1ccc(S(=O)(=O)Nc2nccs2)cc1)N1CCOC(COc2cc(F)cc(F)c2)C1` (stereo not drawn) [Example 262, 4-({2-[(3,5-Difluorophenoxy)methyl]morpholin-4-yl}carbonyl)-N-1,3-thiazol-2-ylbenzenesulfonamide], the IC50 was 6850 nM.

As for `O=C(NCc1ccc(F)c(OC(F)(F)F)c1)c1ccc(S(=O)(=O)Nc2ncc(Cl)s2)c(Cl)c1` [Example 367, 3-Chloro-4-{[(5-chloro-1,3-thiazol-2-yl)amino]sulfonyl}-N-[4-fluoro-3-(trifluoromethoxy)benzyl]benzamide], the IC50 was 1510 nM.

Regarding `O=C(NCc1ccc(Cl)cc1F)c1ccc(S(=O)(=O)Nc2nccs2)cc1` [Example 93, N-(4-chloro-2-fluorobenzyl)-4-[(1,3-thiazol-2-ylamino)sulfonyl]benzamide], the IC50 is 460 nM.

For `O=C(NCc1ccc(C(F)(F)F)cc1)c1ccc(S(=O)(=O)Nc2nccs2)c(F)c1` [Example 303, 3-Fluoro-4-[(1,3-thiazol-2-ylamino)sulfonyl]-N-[4-(trifluoromethyl)benzyl]benzamide], the IC50 is 140 nM.

With `O=C(NCc1ccc(F)c(OC(F)(F)F)c1)c1ccc(S(=O)(=O)Nc2nccs2)cc1F` [Example 331, 2-Fluoro-N-[4-fluoro-3-(trifluoromethoxy)benzyl]-4-[(1,3-thiazol-2-ylamino)sulfonyl] benzamide], the IC50 was 900 nM.

On to `O=C(NCCOc1cccc(Cl)c1)c1ccc(S(=O)(=O)Nc2nccs2)cc1` [Example 144, N-[2-(3-chlorophenoxy)ethyl]-4-[(1,3-thiazol-2-ylamino)sulfonyl]benzamide], for which the IC50 was 1180 nM.

`O=C(NCCc1ccccc1)c1ccc(S(=O)(=O)Nc2nccs2)cc1` [Example 163, N-(2-phenylethyl)-4-[(1,3-thiazol-2-ylamino)sulfonyl]benzamide]: the IC50 is 5050 nM.

For `O=C(NCc1ccc(F)c(OC(F)(F)F)c1)c1ccc(S(=O)(=O)Nc2ncc(Cl)s2)cc1F` [Example 358, 4-{[(5-Chloro-1,3-thiazol-2-yl)amino]sulfonyl}-2-fluoro-N-[4-fluoro-3-(trifluoromethoxy)benzyl]benzamide], the IC50 was 370 nM.

For the compound `Cc1cccc(OC2CCCN(C(=O)c3ccc(S(=O)(=O)Nc4nccs4)cc3)C2)c1` (stereo not drawn) [Example 51, 4-{[3-(3-Methylphenoxy)piperidin-1-yl]carbonyl}-N-1,3-thiazol-2-ylbenzenesulfonamide], the IC50 was 6580 nM.

Turning to `O=C(NC1(Cc2ccc(Cl)cc2)CC1)c1ccc(S(=O)(=O)Nc2nccs2)cc1` [Example 134, N-[1-(4-chlorobenzyl)cyclopropyl]-4-[(1,3-thiazol-2-ylamino)sulfonyl]benzamide], the IC50 was 2280 nM.

For the compound `O=C(NCc1ccc(OC(F)(F)F)c(F)c1)c1ccc(S(=O)(=O)Nc2ncc(Cl)s2)cc1F` [Example 359, 4-{[(5-Chloro-1,3-thiazol-2-yl)amino]sulfonyl}-2-fluoro-N-[3-fluoro-4-(trifluoromethoxy)benzyl]benzamide], the IC50 was 170 nM.

As for `O=C(NCc1ccc(C(F)(F)F)cc1)c1ccc(S(=O)(=O)Nc2nc[nH]n2)cc1` [Example 390, 4-[(1H-1,2,4-triazol-3-ylamino)sulfonyl]-N-[4-(trifluoromethyl)benzyl]benzamide], the IC50 is 9950 nM.

Take `CC(CNC(=O)c1ccc(S(=O)(=O)Nc2nccs2)cc1)Oc1ccccc1Cl` (stereo not drawn) [Example 147, N-[2-(2-chlorophenoxy)propyl]-4-[(1,3-thiazol-2-ylamino)sulfonyl]benzamide]: the IC50 is 2520 nM.

For `O=C(c1ccc(S(=O)(=O)Nc2nccs2)cc1)N1CCO[C@H]2Cc3ccccc3[C@H]21` [Example 52, 4-[(4aR,9aS)-2,3,9,9a-tetrahydroindeno[2,1-b][1,4]oxazin-4(4aH)-ylcarbonyl]-N-1,3-thiazol-2-ylbenzenesulfonamide], the IC50 was 2910 nM.

Take `O=C(c1ccc(S(=O)(=O)Nc2nccs2)cc1)N(Cc1ccccc1)[C@H]1CCCC[C@H]1CO` [Example 245, N-benzyl-N-[(1S,2R)-2-(hydroxymethyl)cyclohexyl]-4-[(1,3-thiazol-2-ylamino)sulfonyl]benzamide]: the IC50 is 2220 nM.

In the case of `O=C(NCc1ccc(C(F)(F)F)c(Cl)c1)c1ccc(S(=O)(=O)Nc2nccs2)cc1` [Example 396, N-[3-chloro-4-(trifluoromethyl)benzyl]-4-[(1,3-thiazol-2-ylamino)sulfonyl] benzamide], the IC50 was 30 nM.

In the case of `O=C(NCc1ccc(F)c(Cl)c1)c1ccc(S(=O)(=O)Nc2nccs2)cc1` [Example 401, N-(3-chloro-4-fluorobenzyl)-4-[(1,3-thiazol-2-ylamino)sulfonyl] benzamide], the IC50 was 170 nM.

For the compound `O=C(NCc1ccc(C(F)(F)F)cc1)c1ccc(S(=O)(=O)Nc2cscn2)cc1` [Example 13, 4-[(1,3-Thiazol-4-ylamino)sulfonyl]-N-[4-(trifluoromethyl)benyzyl]benzamide], the IC50 is 680 nM.

On to `O=C(NCc1cccc(-n2cccn2)c1)c1ccc(S(=O)(=O)Nc2nccs2)cc1` [Example 59, N-[3-(1H-pyrazol-1-yl)benzyl]-4-[(1,3-thiazol-2-ylamino)sulfonyl]benzamide], for which the IC50 was 1690 nM.

The values above are taken from patent publication US8741934B2, “Inhibitors of ion channels” (Pfizer Limited, priority 2007, dated 2014).
